From paper PMC8341910, “Structural and biophysical insights into the mode of covalent binding of rationally designed potent BMX inhibitors” (RSC Chemical Biology, 2020)
Values after ≈ are worked out from the molar mass of the structure shown. Like-named read-outs stand apart in the source and are kept apart here. Values belong to the compound of their own block, whether it stands above or below them.

Tests used:
[1] = test system: LNCaP cells; assay: Anti-proliferative co-treatment assays in LNCaP; assay type: cell-based; conditions: JS24 3 μM, JS25 5 μM, JS26 6 μM, 5 days; for cell viability reduction: co-treatment with Flutamide (50 μM)
[2] = molecular target: T1, BMX (Homo sapiens, UniProt P51813); assay: BMX biochemical activity assay (HTRF, phosphorylation of a biotinylated peptide)
T1 sequence (P51813 1-675): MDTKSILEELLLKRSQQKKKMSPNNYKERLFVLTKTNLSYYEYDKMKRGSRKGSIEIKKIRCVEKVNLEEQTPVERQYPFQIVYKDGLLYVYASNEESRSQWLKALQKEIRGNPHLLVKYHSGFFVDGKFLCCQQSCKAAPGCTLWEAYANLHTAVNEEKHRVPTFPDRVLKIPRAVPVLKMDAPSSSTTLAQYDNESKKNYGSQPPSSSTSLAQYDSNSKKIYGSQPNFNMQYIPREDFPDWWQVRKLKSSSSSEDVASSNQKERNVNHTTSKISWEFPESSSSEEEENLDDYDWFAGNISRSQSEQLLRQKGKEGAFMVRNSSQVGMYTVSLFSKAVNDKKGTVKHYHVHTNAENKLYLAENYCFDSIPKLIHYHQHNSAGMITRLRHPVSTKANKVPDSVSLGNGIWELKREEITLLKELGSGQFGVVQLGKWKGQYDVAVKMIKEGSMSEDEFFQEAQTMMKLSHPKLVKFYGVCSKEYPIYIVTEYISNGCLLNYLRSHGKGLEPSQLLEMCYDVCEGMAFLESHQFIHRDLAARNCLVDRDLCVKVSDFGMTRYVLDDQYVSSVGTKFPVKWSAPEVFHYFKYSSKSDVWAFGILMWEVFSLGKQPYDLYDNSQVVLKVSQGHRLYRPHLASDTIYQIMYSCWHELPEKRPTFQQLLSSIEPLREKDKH

[3] = test system: PC3 cells; assay: PC-3 cell growth assay (CellTiter-Glo, 96 h); assay type: cell-based; conditions: Homo sapiens, read-out: GI50 PC3
Procedure: (§1) GI50 values are reported in μM and are the mean of three individual experiments performed in triplicate. N.d., non-determined, no growth inhibition observed within the concentrations tested.
(§2) Cellular activity Assay: LNCaP and PC-3 Cell Growth Assay
(§3) Cells were seeded in white, opaque-bottom 96-well plates at 5000 cells/well (LNCaP) or 2000 cells/well (PC-3) in a total volume of 100 µL of culture media.
(§4) fold) in 100 µL media were added to the cells 24 hours later. After 96 hours incubation cellular viability was assessed by CellTiter-Glo® (Promega) according to the manufacturer’s instructions. The values were normalized to vehicle and IC50 was calculated using GraphPad

[4] = in vitro; conditions: PAMPA
Source text: (§5) For assessment of drug permeability, we relied on parallel artificial membrane permeability assay (PAMPA) performed at Pion Inc. with the PAMPA Evolution™ instrument (Table S1, ESI ^†).
(§6) methods (ESOL model1 and Ali et al.2) PAMPA: Pe is effective permeability (x10-6 cm/sec)
(§7) measured directly from assay at pH 6.8 and %R is membrane retention.
(§8) as the average of quadruplicates. Und label refers to compounds with extremely low solubility
(§9) for which UV limits were below the detection limits therefore considered undetected.
(§10) Compounds were labelled as high permeability (green), medium permeability (orange) or low
(§11) Artificial Membrane Permeability (PAMPA):
(§12) The PAMPA Evolution™ instrument was used to determine permeability, at Pion Inc. In
(§13) PAMPA, a sandwich is formed such that each composite well is divided into two chambers,
(§14) measured at pH 6.8 in the donor compartment using low-binding, low UV Prisma buffer. The
(§15) drug-free acceptor compartment was filled with acceptor sink buffer containing a scavenger at
(§16) the start of the test. The proprietary scavenger mimics serum proteins and blood circulation,
(§17) thus creating sink conditions. Aqueous solutions of studied compounds are prepared by diluting
(§18) and thoroughly mixing 3 µL of DMSO stock in 600 µL of Prisma HT buffer. Final
(§19) concentration of organic solvent (DMSO) in aqueous buffer is ≤ 0.5% (v/v). The reference
(§20) solution is identical to the donor at time zero, so that any surface adsorption effects from the
(§21) plastic ware is compensated. The PAMPA sandwich was assembled and allowed to incubate
(§22) for ~15 hours. The solutions in the donor compartment were un-stirred within duration of the
(§23) experiment. Thus, the thickness of the aqueous boundary layer expected to be about 1000 µm.
(§24) The sandwich was then separated, and both the donor and receiver compartments were assayed
(§25) for the amount of drug present by comparison with the UV spectrum obtained from reference

[5] = test system: CAOV3; assay: Multi cell line growth assay (CellTiter-Glo, 72 h); assay type: cell-based, human; conditions: Homo sapiens, Caov-3, Ovary, ND = no growth inhibition observed
[6] = test system: Kasumi; assay: Multi cell line growth assay (CellTiter-Glo, 72 h); assay type: cell-based, human; conditions: Homo sapiens, Blood, ND = no growth inhibition observed
[7] = test system: H1299; assay: Multi cell line growth assay (CellTiter-Glo, 72 h); assay type: cell-based, human; conditions: Homo sapiens, NCI-H1299, Bone marrow (so in the source), ND = no growth inhibition observed
[8] = molecular target: BTK (Homo sapiens, UniProt Q06187); assay: BTK biochemical activity assay (radiometric, KinaseProfiler); design: purchased Eurofins DiscoverX KinaseProfiler (contract assay); conditions: for IC50: duplicate, mean ± S.D., read-out: BTK inhibition IC50
BTK, sequence (Q06187 whole entry, species assumed): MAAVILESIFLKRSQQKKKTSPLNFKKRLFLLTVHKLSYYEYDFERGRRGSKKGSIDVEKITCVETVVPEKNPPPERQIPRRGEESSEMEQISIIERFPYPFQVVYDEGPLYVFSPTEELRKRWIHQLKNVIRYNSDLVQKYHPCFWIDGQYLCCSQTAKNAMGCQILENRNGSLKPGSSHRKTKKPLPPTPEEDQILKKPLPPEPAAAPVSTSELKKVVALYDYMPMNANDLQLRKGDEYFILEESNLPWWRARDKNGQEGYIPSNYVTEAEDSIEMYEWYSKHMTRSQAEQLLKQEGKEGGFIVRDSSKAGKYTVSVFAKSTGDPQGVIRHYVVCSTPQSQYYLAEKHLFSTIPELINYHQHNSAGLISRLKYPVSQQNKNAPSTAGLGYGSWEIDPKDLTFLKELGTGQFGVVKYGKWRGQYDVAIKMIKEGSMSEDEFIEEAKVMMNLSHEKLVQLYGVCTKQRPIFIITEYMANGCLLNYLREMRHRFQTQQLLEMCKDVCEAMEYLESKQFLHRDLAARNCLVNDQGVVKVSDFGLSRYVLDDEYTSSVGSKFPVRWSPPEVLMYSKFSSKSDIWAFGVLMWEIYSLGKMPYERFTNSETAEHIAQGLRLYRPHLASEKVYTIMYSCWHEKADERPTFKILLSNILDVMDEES

[9] = test system: LNCaP cells; assay: LNCaP cell growth assay (CellTiter-Glo, 96 h); assay type: cell-based; conditions: Homo sapiens, read-out: GI50 LNCaP
Procedure: as §1, §2, §3, §4

[10] = molecular target: T2, recombinant human BMX protein (hBMX) (Homo sapiens, UniProt P51813); assay: Differential scanning fluorimetry (DSF); assay type: binding; conditions: for ΔTm at 100 µM: read-out: ΔTm; for Average Tm of BMX with compound: apo-BMX Tm 51.8-52.2 °C
T2 construct: Crystallization, data collection, and structure determination of BMX catalytic domain in; made in house; host or cells: Sf-9 insect cells
Procedure: We further characterized the binding interaction between JS24–JS27 and BMX by using differential scanning fluorimetry (DSF) and surface plasmon resonance (SPR). Purified recombinant human BMX protein (hBMX) was first subjected to thermal scanning in the absence and presence of JS24–JS27, and the respective protein melting temperature (Tm) calculated.
Differential Scanning Fluorimetry:
DSF was performed in MicroAmp™ EnduraPlate™ Optical 96 -Well Clear Reaction Plates
with Barcode (Applied Biosystems, Life Technologies, California, USA) using a QuantStudio
7 Flex Real-Time PCR System (Applied Biosystems). Pre-incubation of the protein with the
compound for 2 hours at 4 °C was required prior to DSF experiments. The final reaction mixture
(20 μL of total volume) contained 4 μg of His6-BMX, 4-fold of Protein Thermal Shift™ Dye
(Applied Biosystems) diluted in protein buffer solution, and 100 μM of compound. The
temperatures were obtained by taking the midpoint of each transition.

[11] = test system: Jurkat; assay: Multi cell line growth assay (CellTiter-Glo, 72 h); assay type: cell-based, human; conditions: Homo sapiens, Jurkat, Blood, ND = no growth inhibition observed
[12] = pH 6.8
Source text: as §5, §6, §7, §8, §9, §10, §11, §12, §13, §14, §15, §16, §17, §18, §19, §20, §21, §22, §23, §24, §25

[13] = Dynamic light scattering, colloidal aggregation; assay type: physicochemical; conditions: deionized and filtered water (0.1% DMSO), kinetic from dmso stock, measured at 10 µM, 1 µM and 100 nM, 25 °C, read-out: DLS maximum soluble concentration at which no aggregates are observed
Procedure: In addition, we measured particle sizes by using dynamic light scattering (DLS).
DLS is measured at 10 µM, 1µM and 100 nM. The maximum soluble
concentration – at which no aggregates are observed - is indicated and the colour code indicates
Dynamic Light Scattering:
Dynamic light scattering (Zetasizer Nano S, Malvern, UK) was used to determine compound colloidal aggregation. […] A 10 mM stock solution of
test compounds was prepared in DMSO, following dilution to deionized and filtered water to
obtain an analyte solution of 10 μM (0.1% DMSO). Colloidal aggregation was measured
through sequential dilutions at 10 μM, 1 μM and 0.1 μM.

[14] = molecular target: PIK3CA (Homo sapiens, UniProt P42336); assay: KINOMEscan binding; conditions: read-out: % Ctrl PIK3CA
Procedure: (§26) Therefore, we included the whole TEC, EGFR and JAK family in our screening, and the Src family and Lkb1, which also have a cysteine within the same sequence alignment. We also included kinases involved in upstream (Src, FAK, PI3K, mTOR, PDK1) and downstream (Akt, PAK1, TAM) regulation of BMX signaling pathway and non-receptor tyrosine protein kinase Abl.
(§27) Kinome selectivity was performed with DiscoverX KINOMEscan™ technology.

[15] = molecular target: T1, BMX; assay: KINOMEscan binding; conditions: read-out: % Ctrl BMX
Procedure: (§28) Therefore, we included the whole TEC, EGFR and JAK family in our screening, and the Src family and Lkb1, which also have a cysteine within the same sequence alignment.
as §27

[16] = molecular target: JAK3(JH1domain-catalytic) (Homo sapiens, UniProt P52333); assay: KINOMEscan binding; conditions: read-out: % Ctrl JAK3(JH1domain-catalytic)
Procedure: as §26, §27

[17] = molecular target: AKT1 (Homo sapiens, UniProt P31749); assay: KINOMEscan binding; conditions: read-out: % Ctrl AKT1
AKT1, sequence (P31749 whole entry): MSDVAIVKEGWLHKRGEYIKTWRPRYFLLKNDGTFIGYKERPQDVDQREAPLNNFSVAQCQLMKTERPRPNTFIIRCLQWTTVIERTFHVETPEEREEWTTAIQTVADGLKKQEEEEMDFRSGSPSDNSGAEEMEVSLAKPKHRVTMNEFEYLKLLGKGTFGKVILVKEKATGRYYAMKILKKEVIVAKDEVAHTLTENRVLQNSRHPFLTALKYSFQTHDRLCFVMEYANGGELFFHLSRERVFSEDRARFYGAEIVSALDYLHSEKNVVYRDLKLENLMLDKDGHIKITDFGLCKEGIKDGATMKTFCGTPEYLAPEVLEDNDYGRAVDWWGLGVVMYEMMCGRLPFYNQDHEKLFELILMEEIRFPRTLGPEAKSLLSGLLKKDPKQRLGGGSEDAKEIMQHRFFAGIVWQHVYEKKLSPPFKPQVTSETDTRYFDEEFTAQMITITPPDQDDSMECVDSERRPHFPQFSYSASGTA
Procedure: as §26, §27

[18] = molecular target: FYN (Homo sapiens, UniProt P06241); assay: KINOMEscan binding; conditions: read-out: % Ctrl FYN
FYN, sequence (P06241 whole entry): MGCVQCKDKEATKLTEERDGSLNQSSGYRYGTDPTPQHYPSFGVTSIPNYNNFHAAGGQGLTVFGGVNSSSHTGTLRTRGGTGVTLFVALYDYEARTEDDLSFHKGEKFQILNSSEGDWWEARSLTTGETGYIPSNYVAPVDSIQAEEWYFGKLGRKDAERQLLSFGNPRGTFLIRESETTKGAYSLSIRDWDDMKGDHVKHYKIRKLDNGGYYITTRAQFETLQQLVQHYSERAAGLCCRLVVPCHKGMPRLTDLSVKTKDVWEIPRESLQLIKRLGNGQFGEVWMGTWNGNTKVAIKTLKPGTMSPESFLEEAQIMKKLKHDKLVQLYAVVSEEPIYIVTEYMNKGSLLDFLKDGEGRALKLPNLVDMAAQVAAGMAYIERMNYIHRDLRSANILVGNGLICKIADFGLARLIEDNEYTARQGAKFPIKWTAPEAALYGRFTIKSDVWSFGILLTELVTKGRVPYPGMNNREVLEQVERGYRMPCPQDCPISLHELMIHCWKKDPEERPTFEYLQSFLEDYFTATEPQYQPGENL
Procedure: as §26, §27

[19] = molecular target: PAK1 (Homo sapiens, UniProt Q13153); assay: KINOMEscan binding; conditions: read-out: % Ctrl PAK1
PAK1, sequence (Q13153 whole entry): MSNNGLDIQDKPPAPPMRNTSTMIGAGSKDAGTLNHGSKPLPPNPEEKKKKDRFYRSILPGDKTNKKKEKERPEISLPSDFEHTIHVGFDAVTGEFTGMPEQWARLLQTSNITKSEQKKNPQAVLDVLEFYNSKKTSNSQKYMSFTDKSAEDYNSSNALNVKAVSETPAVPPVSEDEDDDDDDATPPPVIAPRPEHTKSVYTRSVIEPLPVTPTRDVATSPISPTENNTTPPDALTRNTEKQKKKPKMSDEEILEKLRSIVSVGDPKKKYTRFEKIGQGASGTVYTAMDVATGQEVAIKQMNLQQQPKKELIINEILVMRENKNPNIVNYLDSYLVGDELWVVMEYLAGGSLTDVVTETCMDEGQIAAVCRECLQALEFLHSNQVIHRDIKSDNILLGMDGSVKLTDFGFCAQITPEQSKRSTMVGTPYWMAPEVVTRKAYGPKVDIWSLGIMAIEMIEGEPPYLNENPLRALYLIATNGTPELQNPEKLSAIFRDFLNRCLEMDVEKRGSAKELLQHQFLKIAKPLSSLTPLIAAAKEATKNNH
Procedure: as §26, §27

[20] = molecular target: LCK (Homo sapiens, UniProt P06239); assay: KINOMEscan binding; conditions: read-out: % Ctrl LCK
LCK, sequence (P06239 whole entry): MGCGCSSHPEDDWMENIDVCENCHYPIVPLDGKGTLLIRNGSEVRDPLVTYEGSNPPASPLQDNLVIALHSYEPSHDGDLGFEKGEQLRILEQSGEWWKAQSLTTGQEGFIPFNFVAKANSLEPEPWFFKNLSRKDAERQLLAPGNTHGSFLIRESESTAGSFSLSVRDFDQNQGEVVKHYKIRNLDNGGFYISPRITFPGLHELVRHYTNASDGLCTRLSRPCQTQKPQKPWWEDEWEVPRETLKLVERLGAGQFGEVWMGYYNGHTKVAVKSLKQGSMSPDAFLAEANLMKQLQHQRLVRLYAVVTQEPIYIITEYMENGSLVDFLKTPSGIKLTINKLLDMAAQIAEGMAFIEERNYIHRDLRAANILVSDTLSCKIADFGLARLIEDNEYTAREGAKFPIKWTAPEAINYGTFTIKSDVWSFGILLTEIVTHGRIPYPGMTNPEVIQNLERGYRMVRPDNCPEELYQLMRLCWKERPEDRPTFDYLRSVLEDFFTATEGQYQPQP
Procedure: as §28, §27

[21] = molecular target: PIK3CB (Homo sapiens, UniProt P42338); assay: KINOMEscan binding; conditions: read-out: % Ctrl PIK3CB
Procedure: as §26, §27

[22] = molecular target: EGFR (Homo sapiens, UniProt P00533); assay: KINOMEscan binding; conditions: read-out: % Ctrl EGFR
Procedure: as §28, §27

[23] = molecular target: FGR (Homo sapiens, UniProt P09769); assay: KINOMEscan binding; conditions: read-out: % Ctrl FGR
FGR, sequence (P09769 whole entry): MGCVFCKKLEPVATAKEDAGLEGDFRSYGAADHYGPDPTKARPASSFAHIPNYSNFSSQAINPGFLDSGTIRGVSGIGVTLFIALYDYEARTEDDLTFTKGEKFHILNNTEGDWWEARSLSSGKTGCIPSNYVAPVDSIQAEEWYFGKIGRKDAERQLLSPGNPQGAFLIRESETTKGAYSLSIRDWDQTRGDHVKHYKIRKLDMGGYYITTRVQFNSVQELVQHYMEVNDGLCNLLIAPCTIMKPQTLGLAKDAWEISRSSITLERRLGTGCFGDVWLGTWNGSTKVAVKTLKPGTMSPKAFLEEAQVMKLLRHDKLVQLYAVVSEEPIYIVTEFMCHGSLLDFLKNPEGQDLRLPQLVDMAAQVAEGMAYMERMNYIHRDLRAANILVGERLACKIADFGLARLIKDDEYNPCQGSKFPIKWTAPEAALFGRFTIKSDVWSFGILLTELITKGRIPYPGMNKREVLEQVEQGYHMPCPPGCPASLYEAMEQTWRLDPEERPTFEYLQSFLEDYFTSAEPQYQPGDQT
Procedure: as §28, §27

[24] = molecular target: PDPK1 (Homo sapiens, UniProt O15530); assay: KINOMEscan binding; conditions: read-out: % Ctrl PDPK1
PDPK1, sequence (O15530 whole entry): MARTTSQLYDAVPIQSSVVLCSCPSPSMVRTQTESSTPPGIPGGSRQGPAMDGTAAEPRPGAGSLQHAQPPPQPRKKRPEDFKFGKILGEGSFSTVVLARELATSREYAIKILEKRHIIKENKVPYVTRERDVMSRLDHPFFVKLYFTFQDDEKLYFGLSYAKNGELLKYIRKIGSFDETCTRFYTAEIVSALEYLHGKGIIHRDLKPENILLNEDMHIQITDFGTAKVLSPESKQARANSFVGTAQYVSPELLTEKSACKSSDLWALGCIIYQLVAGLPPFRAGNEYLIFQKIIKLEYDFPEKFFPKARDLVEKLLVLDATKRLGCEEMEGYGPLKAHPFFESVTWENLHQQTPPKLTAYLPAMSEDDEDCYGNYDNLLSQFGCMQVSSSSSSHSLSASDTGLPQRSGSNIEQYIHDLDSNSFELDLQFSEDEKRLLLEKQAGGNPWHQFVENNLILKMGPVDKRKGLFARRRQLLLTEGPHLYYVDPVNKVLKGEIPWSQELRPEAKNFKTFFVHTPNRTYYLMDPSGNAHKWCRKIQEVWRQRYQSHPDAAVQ
Procedure: as §26, §27

[25] = molecular target: ERBB2 (Homo sapiens, UniProt P04626); assay: KINOMEscan binding; conditions: read-out: % Ctrl ERBB2
ERBB2, sequence (P04626 23-1255): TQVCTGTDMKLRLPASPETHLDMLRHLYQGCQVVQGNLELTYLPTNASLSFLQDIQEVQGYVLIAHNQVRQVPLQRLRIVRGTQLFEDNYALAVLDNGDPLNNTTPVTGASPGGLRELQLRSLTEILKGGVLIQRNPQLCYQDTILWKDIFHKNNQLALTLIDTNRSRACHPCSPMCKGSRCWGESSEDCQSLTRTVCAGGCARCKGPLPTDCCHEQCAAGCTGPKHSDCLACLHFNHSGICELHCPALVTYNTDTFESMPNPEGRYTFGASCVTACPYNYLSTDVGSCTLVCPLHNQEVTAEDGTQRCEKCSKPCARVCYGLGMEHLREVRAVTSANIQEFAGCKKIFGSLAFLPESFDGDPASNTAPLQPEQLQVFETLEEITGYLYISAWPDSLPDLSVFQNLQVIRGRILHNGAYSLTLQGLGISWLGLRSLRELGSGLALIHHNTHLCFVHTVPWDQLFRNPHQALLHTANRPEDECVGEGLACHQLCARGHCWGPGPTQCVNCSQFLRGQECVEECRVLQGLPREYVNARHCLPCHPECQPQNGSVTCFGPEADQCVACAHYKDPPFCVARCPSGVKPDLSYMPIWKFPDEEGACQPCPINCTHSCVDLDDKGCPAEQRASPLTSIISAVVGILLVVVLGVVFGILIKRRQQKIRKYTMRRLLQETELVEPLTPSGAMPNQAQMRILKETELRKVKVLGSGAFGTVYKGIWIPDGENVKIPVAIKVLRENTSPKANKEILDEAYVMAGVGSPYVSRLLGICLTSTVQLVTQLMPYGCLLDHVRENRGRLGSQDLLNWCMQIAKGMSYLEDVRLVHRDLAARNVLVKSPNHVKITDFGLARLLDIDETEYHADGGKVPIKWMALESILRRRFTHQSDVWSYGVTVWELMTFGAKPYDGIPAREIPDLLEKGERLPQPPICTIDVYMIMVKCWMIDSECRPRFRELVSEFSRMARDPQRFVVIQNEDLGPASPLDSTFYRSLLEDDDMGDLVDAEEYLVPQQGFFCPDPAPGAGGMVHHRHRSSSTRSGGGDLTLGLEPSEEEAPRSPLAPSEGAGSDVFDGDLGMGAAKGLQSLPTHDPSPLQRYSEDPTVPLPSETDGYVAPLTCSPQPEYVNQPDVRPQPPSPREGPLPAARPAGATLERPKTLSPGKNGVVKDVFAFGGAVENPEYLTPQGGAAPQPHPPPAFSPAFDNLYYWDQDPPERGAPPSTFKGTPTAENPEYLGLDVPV
Procedure: as §28, §27

[26] = molecular target: AKT2 (Homo sapiens, UniProt P31751); assay: KINOMEscan binding; conditions: read-out: % Ctrl AKT2
Procedure: as §26, §27

[27] = co-treatment with LY294002 (3 μM)
[28] = Experiment 4 of Fig. S3 = Fig. 1b, duplicate, mean ± S.D., read-out: BMX inhibition IC50
[29] = pH 6.8, PAMPA/Pe effective permeability

IC50 ([2]; Experiment 2 of Fig. S3, control commercial BMX-IN-1, read-out: BMX IC50): 0.0041 ± 0.0003 µM
IC50 [2, 28]: 0.0075 µM
LE (BMX) ([2]; ligand efficiency): 0.29
LipE (BMX) ([2]; lipophilic efficiency): 4.17
GI50 ([3]; PC-3, 96 h, 96-well plates, N.d. = no growth inhibition observed within the concentrations tested): 11.4 ± 4.1 µM
Papp ([4]; pH 6.8, PAMPA permeability): 6.8 ×10⁻⁶ cm/s
Papp [4, 29]: 6.8 ± 0.4 ×10⁻⁶ cm/s
GI50 [7]: 7.28 ± 0.37 µM
BTK potency gain (fold) relative to BMX-IN-1 [8]: 33 fold
IC50 [8]: 0.0111 ± 0.0008 µM
LE (BTK) ([8]; ligand efficiency): 0.29
LipE (BTK) ([8]; lipophilic efficiency): 4.00
GI50 ([9]; 96-well plates, mean of three experiments in triplicate): 1.5 µM
ΔTm at 100 µM ([10]; 100 μM compound, versus apo-BMX): 11.34 ± 0.01 °C
Average Tm of BMX with compound ([10]; 100 μM compound): 63.57±0.01 °C
GI50 [11]: 5.48 µM
PAMPA/%R membrane retention [12]: 13±1%
solubility [13]: 1 µM (≈ 0.525 µg/mL)
SMILES: C=CC(=O)Nc1cc(-n2c(=O)ccc3cnc4cc(-c5ccc(NS(C)(=O)=O)cc5)ccc4c32)ccc1C [JS24]
decrease in cell viability ([1]; co-treatment with AKT1/2 (1 μM), relative to control AKT1/2): 48%
cell viability reduction [1]: 44%
decrease in cell viability [1, 27]: 35%
GI50 [5]: 8.56 µM
GI50 [6]: 5.12 ± 0.12 µM

SMILES: C=CC(=O)Nc1cc(C)cc(-n2c(=O)ccc3cnc4cc(-c5ccc(NS(C)(=O)=O)cc5)ccc4c32)c1 [JS25]
remaining binding at 1 µM [14]: 79%
cell viability reduction [1]: 63%
decrease in cell viability [1, 27]: 59%
remaining binding at 1 µM [15]: 1.3%
remaining binding at 1 µM [16]: 21%
remaining binding at 1 µM [17]: 100%
remaining binding at 1 µM [18]: 99%
IC50 [2, 28]: 0.0035 µM
GI50 ([3]; PC-3, 96 h): 12.1 ± 0.7 µM
Papp ([4]; pH 6.8, PAMPA permeability): 3.8 ×10⁻⁶ cm/s
Papp [4, 29]: 3.8 ± 1.6 ×10⁻⁶ cm/s
remaining binding at 1 µM [19]: 100%
remaining binding at 1 µM [20]: 80%
remaining binding at 1 µM [21]: 89%
remaining binding at 1 µM [22]: 87%
IC50 [8]: 0.0058 ± 4e-05 µM
GI50 [9]: 6.6 µM
remaining binding at 1 µM [23]: 93%
remaining binding at 1 µM [24]: 92%
Average Tm of BMX with compound ([10]; 100 μM compound): 61.43±0.48 °C
ΔTm at 100 µM [10]: 9.3 ± 0.48 °C
remaining binding at 1 µM [25]: 89%
PAMPA/%R membrane retention [12]: 10±18%
solubility [13]: 0.1 µM (≈ 0.0525 µg/mL)
remaining binding at 1 µM [26]: 94%
